These results are taken from ChEMBL document CHEMBL4014278, “Discovery of uracil-bearing DAPYs derivatives as novel HIV-1 NNRTIs via crystallographic overlay-based molecular hybridization” (Eur J Med Chem, 2017).

pEC50, pIC50: −log10 of the molar value. ≈ marks a conversion by molar mass, not a printed value.

Data set [1] has as its system Human immunodeficiency virus 1. In words: Antiviral activity against HIV1 NL4-3. Format: functional. The settings on record: Human immunodeficiency virus 1, NL4-3.
The test system of data set [2] is Human immunodeficiency virus 1. In words: Antiviral activity against HIV1 harboring L100I mutant infected in human MT4 cells assessed as protection against virus-induced cytopathic effect measured at 5 days post infection by MTT assay. Format: functional, cell-based. The settings on record: Human immunodeficiency virus 1, MT4, 120 h. For orientation: Cytopathic effects are the visible damage that an infection or toxin causes in cultured cells.

Data set [3] is described as follows: Solubility of the compound in phosphate buffer at pH 2 after 2 hrs by UV-HPLC method. Type of data set: physicochemical.
The subject of data set [4] is Human immunodeficiency virus 1. Put plainly: Antiviral activity against HIV1 harboring K103N mutant infected in human MT4 cells assessed as protection against virus-induced cytopathic effect measured at 5 days post infection by MTT assay. The settings on record: Human immunodeficiency virus 1, MT4, 120 h. Format: functional, cell-based.
The nature of data set [5]: n-Octanol/water partition coefficient, log P of the compound after 2 hrs by HPLC method. Type of data set: physicochemical.
Data set [6] deals with Human immunodeficiency virus 1. In words: Fold resistance, ratio of EC50 for HIV1 harboring L100I mutant infected in human MT4 cells to EC50 for wild-type HIV1 3B infected in human MT4 cells. Format: functional.
Data set [7] has as its system Human immunodeficiency virus 1. In words: Antiviral activity against HIV1 harboring E138K mutant infected in human MT4 cells assessed as protection against virus-induced cytopathic effect measured at 5 days post infection by MTT assay. The settings on record: Human immunodeficiency virus 1, MT4, 120 h. Format: functional, cell-based.
For data set [8], the system named is Human immunodeficiency virus 1. In words: Antiviral activity against HIV1 RES056 harboring K103N/Y181C double mutant infected in human MT4 cells assessed as protection against virus-induced cytopathic effect measured at 5 days post infection by MTT assay. Format: functional, cell-based. As to conditions: Human immunodeficiency virus 1, RES056, MT4, 120 h.
Data set [9] has as its system Human immunodeficiency virus 2. Put plainly: Antiviral activity against HIV-2 ROD infected in human MT4 cells assessed as protection against virus-induced cytopathic effect measured at 5 days post infection by MTT assay. Type of data set: functional, cell-based. The settings on record: Human immunodeficiency virus 2, ISOLATE ROD, MT4, 120 h.
Data set [10] in a line: Solubility of the compound in phosphate buffer at pH 7.4 after 2 hrs by UV-HPLC method. Type of data set: physicochemical.
In data set [11] the test system is Human immunodeficiency virus 1. Put plainly: Fold resistance, ratio of EC50 for HIV1 harboring K103N mutant infected in human MT4 cells to EC50 for wild-type HIV1 3B infected in human MT4 cells. Type of data set: functional.
Data set [12] is described as follows: Selectivity index, ratio of CC50 for human MT4 cells to EC50 for wild-type HIV1 3B infected in human MT4 cells. Format: toxicity, cell-based. The settings on record: read-out: Ratio CC50/EC50.
Data set [13] deals with Human immunodeficiency virus 1. Put plainly: Antiviral activity against HIV1 harboring Y181C mutant infected in human MT4 cells assessed as protection against virus-induced cytopathic effect measured at 5 days post infection by MTT assay. Type of data set: functional, cell-based. As to conditions: Human immunodeficiency virus 1, MT4, 120 h.
Data set [14] deals with Human immunodeficiency virus 1. In words: Fold resistance, ratio of EC50 for HIV1 harboring Y188L mutant infected in human MT4 cells to EC50 for wild-type HIV1 3B infected in human MT4 cells. Format: functional.
In data set [15] the test system is Human immunodeficiency virus 1. In words: Antiviral activity against HIV1 harboring Y188L mutant infected in human MT4 cells assessed as protection against virus-induced cytopathic effect measured at 5 days post infection by MTT assay. Type of data set: functional, cell-based. As to conditions: Human immunodeficiency virus 1, MT4, 120 h.
The test system of data set [16] is Human immunodeficiency virus 1. In words: Antiviral activity against wild-type HIV1 3B infected in human MT4 cells assessed as protection against virus-induced cytopathic effect measured at 5 days post infection by MTT assay. As to conditions: Human immunodeficiency virus 1, 3B, MT4, 120 h. Format: functional, cell-based.
Data set [17] concerns Human immunodeficiency virus 1. Put plainly: Antiviral activity against HIV1 harboring F227L/V106A double mutant infected in human MT4 cells assessed as protection against virus-induced cytopathic effect measured at 5 days post infection by MTT assay. As to conditions: Human immunodeficiency virus 1, MT4, 120 h. Format: functional, cell-based.
Data set [18] in a line: Cytotoxicity against human MT4 cells after 5 days by MTT assay. Format: cell-based.
Data set [19] deals with Human immunodeficiency virus 1. In words: Fold resistance, ratio of EC50 for HIV1 harboring E138K mutant infected in human MT4 cells to EC50 for wild-type HIV1 3B infected in human MT4 cells. Type of data set: functional.
Data set [20] concerns Human immunodeficiency virus 1. In words: Fold resistance, ratio of EC50 for HIV1 harboring Y181C mutant infected in human MT4 cells to EC50 for wild-type HIV1 3B infected in human MT4 cells. Type of data set: functional.
A short description of data set [21]: Solubility of the compound in 0.1 N HCl at pH 2. Format: physicochemical.
Data set [22] can be described thus: Inhibition of wild-type HIV1 reverse transcriptase assessed as decrease in biotin-dUTP incorporation using poly(A)/oligo(dT)15 as template/primer after 1 hr by ELISA. Details: species or system Human immunodeficiency virus 1. In general terms: An ELISA detects its analyte on a solid surface through an enzyme-linked reagent.
Data set [23] is described as follows: Solubility of the compound in water at pH 7.4. Type of data set: physicochemical.
Data set [24] is described as follows: Lipophilicity, log P of the compound. Type of data set: physicochemical. The settings on record: octanol/water.

For orientation: pEC50 means the EC50 on a negative log10 scale, so that one unit is a factor of ten. `Cc1cc(C#N)cc(C)c1Oc1nc(Nc2ccc(C#N)cc2)nc2[nH]ccc12` showed a pEC50 in data set [1] of 9.28.
What is called solubility is the concentration that dissolves in the medium under given conditions. A lower solubility goes with a poorly soluble substance. Usually logP stands for the decadic logarithm of the partition coefficient of the neutral form, usually between octanol and water. Read a low logP as lower lipophilicity. As a reminder, the CC50 is the concentration at which the toxic effect on the cells reaches its halfway point. As to `Cc1cc(/C=C/C#N)cc(C)c1Oc1cc(N)nc(NCCn2ccc(=O)[nH]c2=O)n1`, the pEC50 in [2] is 4.66; in data set [4] it was 6.28; in data set [7] it was 6.08; in data set [8], < 3.53; in [9], < 3.53; in [13], 5.32. Further, the figures for the pEC50 in data set [15], in data set [16] and in [17] were < 3.53, 6.77 and < 3.53, respectively. The solubility at 2 h came out at 91.7 µg/mL (≈ 219 µM) in data set [3] and 0.43 µg/mL (≈ 1.03 µM) in [10]. This compound came in with a logP at 2 h in data set [5] of 1.21. Also, the “Ratio EC50” value in data set [6] was 129; in data set [11], 3; in data set [14] it was >1753; in data set [19], 5; in [20], 28. For the same compound, in data set [12], the selectivity ratio was > 1740. Besides, the CC50 at 120 h in [18] was > 298000 nM.
By pIC50 is commonly meant −log10 of the IC50, conventionally taken in molar units. For `Cc1cc(C#N)cc(C)c1Oc1nc(Nc2ccc(C#N)cc2)nc(N)c1Br` [ETRAVIRINE], the pEC50 in data set [2] was 8.18; in [8], 8.47. Further, the solubility in data set [21] and in data set [23] was < 1 µg/mL throughout. In addition, in [22], the pIC50 is 6.00. For the same compound, the logP in data set [24] is > 5.
